# Measured values: patent US9079866B2, “Flap modulators” (JANSSEN PHARMACEUTICA NV, priority 2013, dated 2015)
# Experiments:
# [1] = test system: leukotriene pathway in human whole blood (LTB4 levels); test: Human whole blood assay (A23187-stimulated LTB4); type: cell-based; details: Homo sapiens, human whole blood diluted 1:1, A23187-stimulated; read-out: LTB4 IC50 1:1
# Method in brief: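 Single-replicate data from at least one healthy donor: compound pre-incubated 15 min at 37° Celsius in 1:1 RPMI-diluted heparinised blood, followed by 30 min calcium ionophore A23187 (7 μg/mL) challenge at 37° Celsius. LTB4 in plasma quantified by kit; IC50 via 4-parameter equation.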
# human FLAP = human FLAP (Homo sapiens (Human), UniProt P20292); test: FLAP binding assay (HTRF format); details: wild type FLAP, HTRF format
# Method in brief: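 HTRF ratio read-out; two independent plates, samples in duplicate on each, values averaged across plates.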
# Chain of human FLAP (P20292 whole entry): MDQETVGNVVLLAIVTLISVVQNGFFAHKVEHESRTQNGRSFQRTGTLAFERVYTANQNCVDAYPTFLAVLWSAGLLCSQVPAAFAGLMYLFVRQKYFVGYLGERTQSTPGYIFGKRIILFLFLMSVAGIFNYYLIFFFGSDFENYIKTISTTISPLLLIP
IC50 [1] [nM],Ki (human FLAP) [nM],SMILES
99.6,12.7,"Nc1cnc(-c2ccc(-c3ccccc3-c3cnc(N)cn3)cc2F)cn1 [Example 840, 5,5′-(3′-Fluorobiphenyl-2,4′-diyl)dipyrazin-2-amine]"
370,146,"Nc1cnc(-c2ccccc2-c2ccc(-c3cnc(N)nc3)c(F)c2)cn1 [Example 841, 5-[2′-(5-Aminopyrazin-2-yl)-3-fluorobiphenyl-4-yl]pyrimidin-2-amine]"
61,5.3,"Nc1cnc(-c2ccc(-c3ccccc3-c3cncc(N)n3)cc2F)cn1 [Example 842, 5-[2′-(6-Aminopyrazin-2-yl)-3-fluorobiphenyl-4-yl]pyrazin-2-amine]"
44.3,15.6,"Nc1cnc(-c2ccc(-c3ccccc3-c3cnc(N)nc3)cc2F)cn1 [Example 843, 5-[4′-(5-Aminopyrazin-2-yl)-3′-fluorobiphenyl-2-yl]pyrimidin-2-amine]"
907,509,"Nc1ncc(-c2ccc(-c3ccccc3-c3cnc(N)nc3)cc2F)cn1 [Example 844, 5,5′-(3′-Fluorobiphenyl-2,4′-diyl)dipyrimidin-2-amine]"
41.8,10.5,"COc1ncc(-c2ccccc2-c2ccc(-c3cnc(N)cn3)c(F)c2)cn1 [Example 846, 5-[3-Fluoro-2′-(2-methoxypyrimidin-5-yl)biphenyl-4-yl]pyrazin-2-amine]"
99.1,8.1,"Cn1cc(-c2ccccc2-c2ccc(-c3cnc(N)cn3)c(F)c2)cn1 [Example 847, 5-[3-Fluoro-2′-(1-methyl-1H-pyrazol-4-yl)biphenyl-4-yl]pyrazin-2-amine]"
322,96.8,"Nc1cnc(-c2ccc(-c3ccccc3-c3cncnc3)cc2F)cn1 [Example 848, 5-(3-Fluoro-2′-pyrimidin-5-ylbiphenyl-4-yl)pyrazin-2-amine]"
> 1000,35.6,"N#Cc1ncc(-c2ccccc2-c2ccc(-c3cnc(N)cn3)c(F)c2)cn1 [Example 849, 5-[4′-(5-Aminopyrazin-2-yl)-3′-fluorobiphenyl-2-yl]pyrimidine-2-carbonitrile]"
195,37.7,"Nc1cnc(-c2ccc(-c3ccccc3-c3cnc(N4CCOCC4)nc3)cc2F)cn1 [Example 850, 5-[3-Fluoro-2′-(2-morpholin-4-ylpyrimidin-5-yl)biphenyl-4-yl]pyrazin-2-amine]"
359,32.6,"CC(C)(O)Cn1cc(-c2ccccc2-c2ccc(-c3cnc(N)cn3)c(F)c2)cn1 [Example 851, 1-{4-[4′-(5-Aminopyrazin-2-yl)-3′-fluorobiphenyl-2-yl]-1H-pyrazol-1-yl}-2-methylpropan-2-ol]"
45.6,4.7,"Nc1cnc(-c2ccc(-c3ccc(C(F)(F)F)cc3-c3cnc(N)nc3)cc2F)cn1 [Example 853, 5-[4′-(5-Aminopyrazin-2-yl)-3′-fluoro-4-(trifluoromethyl)biphenyl-2-yl]pyrimidin-2-amine]"
83.9,60.5,"Nc1cnc(-c2ccc(-c3ccccc3N3CCCS3(=O)=O)cc2F)cn1 [Example 856, 5-[2′-(1,1-Dioxidoisothiazolidin-2-yl)-3-fluorobiphenyl-4-yl]pyrazin-2-amine]"
205,28,"Nc1cnc(-c2ccc(-c3ccccc3N3CCCCS3(=O)=O)cc2F)cn1 [Example 857, 5-[2′-(1,1-Dioxido-1,2-thiazinan-2-yl)-3-fluorobiphenyl-4-yl]pyrazin-2-amine]"
370,210,"Nc1ncc(-c2ccc(-c3ccccc3N3CCCS3(=O)=O)cc2F)cn1 [Example 858, 5-[2′-(1,1-Dioxidoisothiazolidin-2-yl)-3-fluorobiphenyl-4-yl]pyrimidin-2-amine]"

SMILES,IC50 [1] [nM],Ki (human FLAP) [nM]
"Nc1cnc(-c2ccc(-c3ccc(C(F)(F)F)cc3C3=CCNCC3)cc2F)cn1 [Example 852, 5-[3-Fluoro-2′-(1,2,3,6-tetrahydropyridin-4-yl)-4′-(trifluoromethyl)biphenyl-4-yl]pyrazin-2-amine]",1350,118
